In the experiment the target is T1, δ opioid receptors (Mus musculus, UniProt P32300).
T1 construct: antagonism of the delta-selective agonist DPDPE
The experiment can be described thus: opioid antagonism against receptor selective agonists (DAMGO, μ; Cl 977, κ; DPDPE, δ) in electrical stimulated guinea-pig ileum (GPI) and mouse vas deferens (MVD) preparations. The experiment is classed as cell-based. The procedure:
δ-Antagonism was assessed using the electrical stimulated guinea-pig ileum longitudinal muscle preparation (GPI; containing μ and κ opioid receptors) and mouse vas deferens preparation (MVD; containing μ, κ and δ opioid receptors) (H. Schmidhammer et al., J. Med. Chem., Vol. 32: 418-421, 1989; H Schnmidhammer et al., J. Med. Chem., Vol. 33:1200-1206,1990). The activity of the compound 1 of the Examples for inhibiting the suppression of contraction of the organs by three receptor selective agonists (DAMGO, μ; Cl 977, κ; DPDPE, δ) was measured.

Structures can show the parent of a compound that is named as a salt.

T1 sequence (P32300 whole entry): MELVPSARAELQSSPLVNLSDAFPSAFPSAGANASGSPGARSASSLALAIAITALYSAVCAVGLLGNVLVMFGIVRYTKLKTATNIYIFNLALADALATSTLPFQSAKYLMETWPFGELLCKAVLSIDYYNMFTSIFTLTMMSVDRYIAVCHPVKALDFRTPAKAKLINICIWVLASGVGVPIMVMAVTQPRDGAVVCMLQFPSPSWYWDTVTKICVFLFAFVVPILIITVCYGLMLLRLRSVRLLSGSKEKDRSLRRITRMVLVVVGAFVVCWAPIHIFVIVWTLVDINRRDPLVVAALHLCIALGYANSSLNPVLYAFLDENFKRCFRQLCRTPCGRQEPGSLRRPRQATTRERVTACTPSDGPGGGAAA

With `CCO[C@@]12Cc3c([nH]c4ccccc34)[C@]3(C)Oc4c(O)ccc5c4[C@@]31CCN(CC1CC1)[C@@H]2C5` [compound 1, 17-(Cyclopropylmethyl)-6,7-dehydro-4,5α-epoxy-14-ethoxy-3-hydroxy-5-methyl-6,7-2',3'-indolomorphinan hydrochloride], the “opioid antagonism (inhibiting the suppression of contraction of the organs by receptor selective agonists)” value (GPI and MVD preparations, agonists DAMGO (μ), Cl 977 (κ), DPDPE (δ)) was “δ-selective opioid antagonism”. Where the note is “antagonism of Cl 977 (κ) vs DPDPE (δ)”, the κ/δ selectivity ratio entry is “very good”. Besides, under “antagonism of DAMGO (μ) vs DPDPE (δ)”, the μ/δ selectivity ratio result was “very good”.
